Data on 14 compounds can be found in publication PMC6009948, “Design and synthesis of benzopyran-based inhibitors of the hypoxia-inducible factor-1 pathway with improved water solubility” (Journal of Enzyme Inhibition and Medicinal Chemistry, 2017).

In brackets after ≈: the same amount, converted by molar mass. Like-named read-outs stand apart in the source and are kept apart here.

In data set [1] the test system is hypoxia-induced HIF transcriptional activity. Kind of data set: HRE-luciferase reporter assay in LN229-HRE-luciferase glioma cells. The conditions noted are these: read-out: IC50, HRE-luciferase reporter inhibitory activity. The class given is cell-based. The method, then: These analogs were first evaluated for their ability to inhibit hypoxia-induced HIF transcriptional activity in LN229-HRE-luciferase glioma cells as described previously. Their inhibitory activities are presented as IC50 in Table 1.
All the analogs were assessed for their ability to inhibit the HIF-1 pathway using a luciferase reporter assay described previously. This assay reports the ability for a compound to inhibit HIF transcriptional activity. […] The same is true if the morpholino unit is directly attached to the sulfonyl group (6). In the two series of compounds (3, 4) with a substituted phenyl group replacing the benzopyran ring in 1, only introduction of the morpholino moiety at the para positions (3) allowed for the preservation of HIF inhibition activity.
A general note: In a reporter assay the amount or activity of a reporter protein is the signal.

Data set [2] has the same test system. Particulars: cited from earlier work.
For data set [3], the system named is brain, and pancreatic cancers. More on the design: method as in earlier work. Particulars: cited from earlier work.
Details of data set [4]: method as in earlier work. The conditions noted are these: cited from earlier work.
Data set [5] is described as follows: Solubility by dynamic light scattering (particle aggregation). In kind it is physicochemical. The conditions noted are these: DLS; for Concentration of particle appearance in PBS: PBS with 1% DMSO, rested 1 h; for Concentration of particle appearance in water: de-ionised water with 1% DMSO, room temperature, rested 24 h. As for the experimental part: To further investigate the true enhancement of solubility, particle aggregation was examined using dynamic light scattering (DLS). Selected compounds were treated according to the following procedure: • All centrifuge tubes and cuvettes were rinsed with either DCM or water and then vacuum dried before use to remove dust and any particulates. • Stock solutions (10 mM) of each compound of interest were prepared in filtered DMSO. • Six dilutions (0, 10, 20, 30, 50, and 100 µM) were prepared in filtered de-ionised water with 1% DMSO and allowed to rest at room temperature for 24 h after vortex. • DLS analysis was performed for each concentration on the Brookhaven Instrument Corporation, NanoBrook 90Plus Particle Size Analyzer, Version 5.20 (Holtsville, NY). • Additional experiments were performed at specific concentrations for each compound as follows: 0, 1, 3, 10, and 20 µM concentrations of 1; 0, 10, 12, and 20 µM of 2; 0, 5, 7, and 10 µM of 3a; and 0, 10, 20, 30, and 50 µM concentrations of 4a. • Additional experiments were repeated in filtered PBS* with 1% DMSO as follows: 0, 0.5, 1, 2, 3, and 5 µM concentrations of 1; 0, 5, 7, 10, 12, and 15 µM of 2; 0, 10, 12, 15, and 20 µM of 3a; and 0, 10, 20, 30, and 50 µM concentrations of 4a.
*Experiments in PBS were carried out the same way as the experiments in water except DMSO stock solutions were made at 5 mM and the PBS diluted samples rested for 1 h before particle analysis.
To investigate the true enhancement of aqueous solubility, particle aggregation was examined using DLS. DLS can detect particle sizes in solution by measuring changes in scattered light in relation to the Brownian motion of particles. It is commonly used to detect the particle sizes of various chemical and biological molecules, including small molecule inhibitors. Though there are several methods for detecting solubility, we chose the DLS method due to its ease, reproducibility, minimal sample requirement, and relative sensitivity to small particles.
The active compounds 3a and 4a were compared to their non-morpholine containing counterparts, 1 and 2, respectively (Figure 3). Solutions of varying concentrations of each compound were made in either water or PBS with 1% DMSO. […] DLS measurements, summarised in Table 2, reveal that 3a forms aggregates at approximately 10 µM, an order of magnitude higher than 1, which is insoluble at just 1 µM in water.

On the set-up of data set [6]: method as in earlier work. The conditions noted are these: daily treatments with 60 mg/kg for up to 12 weeks; cited from earlier work.
Details of data set [7]: method as in earlier work. Particulars: cited from earlier work. This is another data set of the same source.

Turning to “3,4-Dimethoxy-N-(2-(morpholinomethyl)benzyl)-N-phenylbenzenesulfonamide [Compound 3c]”, in data set [1], the IC50 (commonly the point on the concentration scale where inhibition reaches its midpoint) was more than 5 µM.
Take `COc1ccc(S(=O)(=O)N(Cc2ccc3c(c2)C=CC(C)(C)O3)c2ccccc2)cc1OC` [Compound 1, N-((2,2-dimethyl-2H-chromen-6-yl)methyl)-3,4-dimethoxy-N-phenylbenzenesulfonamide]: the IC50 in data set [2] (lead compound 1 (KCN1), read-out: IC50, HIF-dependent bioassay (HRE-luciferase reporter)) was approximately 0.6 µM. In data set [3], the “in vivo inhibitory activity against brain, and pancreatic cancers” value was “very pronounced inhibitory activity”. Further, the cytotoxicity result in data set [4] is given as “Neither did 1 nor its analogs demonstrate cytotoxicity”. In data set [5], the “Concentration of particle appearance in PBS” value (“Concentration … in PBS” below) came to 1 µM and the “Concentration of particle appearance in water” value (“Concentration … in water” below) was 1 µM. The “tolerability / side effects in mice” value in data set [6] is “minimal side effects”. Further, in data set [7], the solubility in water was 9 ng/mL (≈ 0.0193 µM).
`COc1ccc(S(=O)(=O)N(Cc2ccc3c(n2)C=CC(C)(C)O3)C2CCC2)cc1OC` [Compound 2, N-cyclobutyl-N-((2,2-dimethyl-2H-pyrano[3,2-b]pyridin-6-yl)methyl)-3,4-dimethoxybenzenesulfonamide]: in data set [2] (lead compound 2 (64b), read-out: IC50, HRE-luciferase reporter inhibitory activity), the IC50 is approximately 0.3 µM. For the same compound, in data set [5], the “Concentration … in PBS” value stood at 10 µM and the “Concentration … in water” value was 10 µM.
As to `COc1ccc(S(=O)(=O)N(Cc2ccc(CN3CCOCC3)cc2)c2ccccc2)cc1OC` [Compound 3a, 3,4-Dimethoxy-N-(4-(morpholinomethyl)benzyl)-N-phenylbenzenesulfonamide], the IC50 in data set [1] (Glioma cell) worked out at 0.9 µM. The “Concentration … in PBS” value in data set [5] was 15 µM.
For the compound `COc1ccc(S(=O)(=O)N(Cc2cccc(CN3CCOCC3)c2)c2ccccc2)cc1OC` [Compound 3b, 3,4-Dimethoxy-N-(3-(morpholinomethyl)benzyl)-N-phenylbenzenesulfonamide], the IC50 in data set [1] (Glioma cell) is more than 5 µM.
As for `COc1ccc(S(=O)(=O)N(Cc2ccc(N3CCOCC3)cc2)c2ccccc2)cc1OC` [Compound 3d, 3,4-Dimethoxy-N-(4-morpholinobenzyl)-N-phenylbenzenesulfonamide], the IC50 in data set [1] (Glioma cell) is 3.8 µM.
As for `COc1ccc(S(=O)(=O)N(Cc2ccc(CN3CCOCC3)cc2)C2CCC2)cc1OC` [Compound 4a, N-Cyclobutyl-3,4-dimethoxy-N-(4-(morpholinomethyl)benzyl)benzenesulfonamide], in data set [1] (Glioma cell), the IC50 came to 1 µM. The “Concentration … in water” value in data set [5] is more than 100 µM.
`COc1ccc(S(=O)(=O)N(Cc2cccc(CN3CCOCC3)c2)C2CCC2)cc1OC` [Compound 4b, N-Cyclobutyl-3,4-dimethoxy-N-(3-(morpholinomethyl)benzyl)benzenesulfonamide]: the IC50 in data set [1] (Glioma cell) is more than 5 µM.
`COc1ccc(S(=O)(=O)N(Cc2ccc(N3CCOCC3)cc2)C2CCC2)cc1OC` [Compound 4d, N-Cyclobutyl-3,4-dimethoxy-N-(4-morpholinobenzyl)benzenesulfonamide]: the IC50 in data set [1] (Glioma cell) was approximately 2.6 µM.
With `COc1ccc(S(=O)(=O)N(CCN2CCOCC2)Cc2ccc3c(c2)C=CC(C)(C)O3)cc1OC` [Compound 5a, N-((2,2-Dimethyl-2H-chromen-6-yl)methyl)-3,4-dimethoxy-N-(2-morpholinoethyl)benzenesulfonamide], in data set [1] (Glioma cell), the IC50 was more than 5 µM.
Regarding `COc1ccc(S(=O)(=O)N(CCCN2CCOCC2)Cc2ccc3c(c2)C=CC(C)(C)O3)cc1OC` [Compound 5b, N-((2,2-Dimethyl-2H-chromen-6-yl)methyl)-3,4-dimethoxy-N-(3-morpholinopropyl)benzenesulfonamide], in data set [1] (Glioma cell), the IC50 was more than 5 µM.
On the same count and under the same terms, for `CC1(C)C=Cc2cc(CN(c3ccccc3)S(=O)(=O)N3CCOCC3)ccc2O1` [Compound 6a, N-((2,2-Dimethyl-2H-chromen-6-yl)methyl)-N-phenylmorpholine-4-sulfonamide] the value was more than 5 µM; for `CC1(C)C=Cc2cc(CN(C3CCC3)S(=O)(=O)N3CCOCC3)ccc2O1` [Compound 6b, N-Cyclobutyl-N-((2,2-dimethyl-2H-chromen-6-yl)methyl)morpholine-4-sulfonamide], more than 5 µM.
Consider “N-Cyclobutyl-3,4-dimethoxy-N-(2-(morpholinomethyl)benzyl)benzenesulfonamide [Compound 4c]”, for which, in data set [1], the IC50 is more than 5 µM.
